{"source": "patent US20210254056A1", "about": "“IDENTIFICATION AND TARGETED MODULATION OF GENE SIGNALING NETWORKS” (CAMP4 THERAPEUTICS CORPORATION, priority 2017, published 2021)", "test_system": "hepatocytes", "assay": "RNA-seq of hepatocytes treated with Phase III failure compounds", "conditions": "hepatocytes", "experimental": "RNA-seq was performed to determine the effects of the compounds on hepatocytes.\nSignificance was determined by the criteria of FPKM≥0.5, a log 2(fold-change)≥1, and a […]."}
{"molecule": "CCC(CC)[C@H](NC(C)=O)[C@@H]1[C@H](O)[C@@H](C(=O)O)C[C@H]1NC(=N)N.O.O.O", "note": "[peramivir (trihydrate), peramivir]", "values": [{"measurement": "RNA-seq results: DOLK expression", "setting": "gene DOLK", "value": 0.33}, {"measurement": "RNA-seq results, DPM3 expression", "setting": "gene DPM3", "value": "−0.11"}, {"measurement": "RNA-seq results: DPM3 expression", "setting": "gene DPM3", "value": 0.68}, {"measurement": "RNA-seq results, DPYD expression", "setting": "gene DPYD", "value": "−0.21"}, {"measurement": "RNA-seq results: DPYD expression", "setting": "gene DPYD", "value": "−0.43"}, {"measurement": "RNA-seq results, DPYS expression", "setting": "gene DPYS", "value": "−0.01"}, {"measurement": "RNA-seq results: DPYS expression", "setting": "gene DPYS", "value": "−0.27"}, {"measurement": "RNA-seq results, EARS2 expression", "setting": "gene EARS2", "value": 0.04}, {"measurement": "RNA-seq results: EARS2 expression", "setting": "gene EARS2", "value": "−0.01"}, {"measurement": "RNA-seq results, EDA expression", "setting": "gene EDA", "value": "−0.03"}, {"measurement": "RNA-seq results: EDA expression", "setting": "gene EDA", "value": 0.3}, {"measurement": "RNA-seq results, EHHADH expression", "setting": "gene EHHADH", "value": "−0.10"}, {"measurement": "RNA-seq results: EHHADH expression", "setting": "gene EHHADH", "value": "−0.3"}, {"measurement": "RNA-seq results, ELAC2 expression", "setting": "gene ELAC2", "value": "−0.15"}, {"measurement": "RNA-seq results: ELAC2 expression", "setting": "gene ELAC2", "value": "−0.13"}, {"measurement": "RNA-seq results, ENO3 expression", "setting": "gene ENO3", "value": 0.30}, {"measurement": "RNA-seq results: ENO3 expression", "setting": "gene ENO3", "value": "−0.12"}, {"measurement": "RNA-seq results, ENPP1 expression", "setting": "gene ENPP1", "value": "−0.28"}, {"measurement": "RNA-seq results: ENPP1 expression", "setting": "gene ENPP1", "value": "−0.21"}, {"measurement": "RNA-seq results, EPG5 expression", "setting": "gene EPG5", "value": 0.13}, {"measurement": "RNA-seq results: EPG5 expression", "setting": "gene EPG5", "value": 0}, {"measurement": "RNA-seq results, EPHX1 expression", "setting": "gene EPHX1", "value": "−0.26"}, {"measurement": "RNA-seq results: EPHX1 expression", "setting": "gene EPHX1", "value": 0.16}, {"measurement": "RNA-seq results, ERCC4 expression", "setting": "gene ERCC4", "value": "−0.23"}, {"measurement": "RNA-seq results: ERCC4 expression", "setting": "gene ERCC4", "value": "−0.18"}, {"measurement": "RNA-seq results, ERCC6 expression", "setting": "gene ERCC6", "value": 0.05}, {"measurement": "RNA-seq results: ERCC6 expression", "setting": "gene ERCC6", "value": "−0.09"}, {"measurement": "RNA-seq results, ETFB expression", "setting": "gene ETFB", "value": 0.23}, {"measurement": "RNA-seq results: ETFB expression", "setting": "gene ETFB", "value": 0.14}, {"measurement": "RNA-seq results, ETHE1 expression", "setting": "gene ETHE1", "value": 0.31}, {"measurement": "RNA-seq results: ETHE1 expression", "setting": "gene ETHE1", "value": 0.31}, {"measurement": "RNA-seq results, F2 expression", "setting": "gene F2", "value": 0.11}, {"measurement": "RNA-seq results: F2 expression", "setting": "gene F2", "value": 0.31}, {"measurement": "RNA-seq results, F2RL1 expression", "setting": "gene F2RL1", "value": "−0.53"}, {"measurement": "RNA-seq results: F2RL1 expression", "setting": "gene F2RL1", "value": 0.01}, {"measurement": "RNA-seq results, F5 expression", "setting": "gene F5", "value": "−0.08"}, {"measurement": "RNA-seq results: F5 expression", "setting": "gene F5", "value": "−0.44"}, {"measurement": "RNA-seq results, F9 expression", "setting": "gene F9", "value": "−0.53"}, {"measurement": "RNA-seq results: F9 expression", "setting": "gene F9", "value": "−0.17"}, {"measurement": "RNA-seq results, FABP1 expression", "setting": "gene FABP1", "value": 0.73}, {"measurement": "RNA-seq results: FABP1 expression", "setting": "gene FABP1", "value": "−0.05"}, {"measurement": "RNA-seq results, FADD expression", "setting": "gene FADD", "value": "−0.14"}, {"measurement": "RNA-seq results: FADD expression", "setting": "gene FADD", "value": 0.13}, {"measurement": "RNA-seq results, FAM111A expression", "setting": "gene FAM111A", "value": "−0.08"}, {"measurement": "RNA-seq results: FAM111A expression", "setting": "gene FAM111A", "value": "−0.05"}, {"measurement": "RNA-seq results, FAM111B expression", "setting": "gene FAM111B", "value": 0.11}, {"measurement": "RNA-seq results: FAM111B expression", "setting": "gene FAM111B", "value": "−0.44"}, {"measurement": "RNA-seq results, FAN1 expression", "setting": "gene FAN1", "value": "−0.06"}, {"measurement": "RNA-seq results: FAN1 expression", "setting": "gene FAN1", "value": "−0.14"}, {"measurement": "RNA-seq results, FARS2 expression", "setting": "gene FARS2", "value": "−0.22"}, {"measurement": "RNA-seq results: FARS2 expression", "setting": "gene FARS2", "value": "−0.04"}, {"measurement": "RNA-seq results, FASLG expression", "setting": "gene FASLG", "value": 1.15}, {"measurement": "RNA-seq results: FASLG expression", "setting": "gene FASLG", "value": "−0.66"}, {"measurement": "RNA-seq results, FGA expression", "setting": "gene FGA", "value": "−0.25"}, {"measurement": "RNA-seq results: FGA expression", "setting": "gene FGA", "value": "−0.37"}, {"measurement": "RNA-seq results, FGD1 expression", "setting": "gene FGD1", "value": "−0.25"}, {"measurement": "RNA-seq results: FGD1 expression", "setting": "gene FGD1", "value": 0.14}, {"measurement": "RNA-seq results, FGFR2 expression", "setting": "gene FGFR2", "value": "−0.13"}, {"measurement": "RNA-seq results: FGFR2 expression", "setting": "gene FGFR2", "value": "−0.42"}, {"measurement": "RNA-seq results, FIG4 expression", "setting": "gene FIG4", "value": "−0.30"}, {"measurement": "RNA-seq results: FIG4 expression", "setting": "gene FIG4", "value": 0.3}, {"measurement": "RNA-seq results, FIS1 expression", "setting": "gene FIS1", "value": 0.44}, {"measurement": "RNA-seq results: FIS1 expression", "setting": "gene FIS1", "value": 0.25}, {"measurement": "RNA-seq results, FTCD expression", "setting": "gene FTCD", "value": 0.58}, {"measurement": "RNA-seq results: FTCD expression", "setting": "gene FTCD", "value": 0.43}, {"measurement": "RNA-seq results, FTH1 expression", "setting": "gene FTH1", "value": "−0.04"}, {"measurement": "RNA-seq results: FTH1 expression", "setting": "gene FTH1", "value": 0.7}, {"measurement": "RNA-seq results, FUCA1 expression", "setting": "gene FUCA1", "value": "−0.23"}, {"measurement": "RNA-seq results: FUCA1 expression", "setting": "gene FUCA1", "value": 0.07}, {"measurement": "RNA-seq results, FXN expression", "setting": "gene FXN", "value": "−0.69"}, {"measurement": "RNA-seq results: FXN expression", "setting": "gene FXN", "value": 0.12}, {"measurement": "RNA-seq results, G6PC3 expression", "setting": "gene G6PC3", "value": 0.06}, {"measurement": "RNA-seq results: G6PC3 expression", "setting": "gene G6PC3", "value": 0.29}, {"measurement": "RNA-seq results, G6PC expression", "setting": "gene G6PC", "value": 0.23}, {"measurement": "RNA-seq results: G6PC expression", "setting": "gene G6PC", "value": 0.01}, {"measurement": "RNA-seq results, G6PD expression", "setting": "gene G6PD", "value": 0.08}, {"measurement": "RNA-seq results: G6PD expression", "setting": "gene G6PD", "value": 0.59}, {"measurement": "RNA-seq results, GALK1 expression", "setting": "gene GALK1", "value": 0.18}, {"measurement": "RNA-seq results: GALK1 expression", "setting": "gene GALK1", "value": 0.34}, {"measurement": "RNA-seq results, GALK2 expression", "setting": "gene GALK2", "value": "−0.13"}, {"measurement": "RNA-seq results: GALK2 expression", "setting": "gene GALK2", "value": "−0.11"}, {"measurement": "RNA-seq results, GALT expression", "setting": "gene GALT", "value": 0.15}, {"measurement": "RNA-seq results: GALT expression", "setting": "gene GALT", "value": 0.26}, {"measurement": "RNA-seq results, GATA6 expression", "setting": "gene GATA6", "value": "−0.08"}, {"measurement": "RNA-seq results: GATA6 expression", "setting": "gene GATA6", "value": "−0.02"}, {"measurement": "RNA-seq results, GATM expression", "setting": "gene GATM", "value": "−0.37"}, {"measurement": "RNA-seq results: GATM expression", "setting": "gene GATM", "value": "−0.37"}, {"measurement": "RNA-seq results, GBA expression", "setting": "gene GBA", "value": "−0.19"}, {"measurement": "RNA-seq results: GBA expression", "setting": "gene GBA", "value": 0.27}, {"measurement": "RNA-seq results, GBE1 expression", "setting": "gene GBE1", "value": "−0.20"}, {"measurement": "RNA-seq results: GBE1 expression", "setting": "gene GBE1", "value": "−0.08"}, {"measurement": "RNA-seq results, GCH1 expression", "setting": "gene GCH1", "value": "−0.27"}, {"measurement": "RNA-seq results: GCH1 expression", "setting": "gene GCH1", "value": "−0.25"}, {"measurement": "RNA-seq results, GCKR expression", "setting": "gene GCKR", "value": 0.29}, {"measurement": "RNA-seq results: GCKR expression", "setting": "gene GCKR", "value": 0.32}, {"measurement": "RNA-seq results, GCLC expression", "setting": "gene GCLC", "value": "−0.18"}, {"measurement": "RNA-seq results: GCLC expression", "setting": "gene GCLC", "value": "−0.14"}, {"measurement": "RNA-seq results, GGCX expression", "setting": "gene GGCX", "value": 0.10}, {"measurement": "RNA-seq results: GGCX expression", "setting": "gene GGCX", "value": "−0.22"}, {"measurement": "RNA-seq results, GHR expression", "setting": "gene GHR", "value": "−0.27"}, {"measurement": "RNA-seq results: GHR expression", "setting": "gene GHR", "value": "−0.6"}, {"measurement": "RNA-seq results, GJB2 expression", "setting": "gene GJB2", "value": "−0.37"}, {"measurement": "RNA-seq results: GJB2 expression", "setting": "gene GJB2", "value": 0.1}, {"measurement": "RNA-seq results, GLDC expression", "setting": "gene GLDC", "value": 0.02}, {"measurement": "RNA-seq results: GLDC expression", "setting": "gene GLDC", "value": "−0.33"}, {"measurement": "RNA-seq results, GLIS3 expression", "setting": "gene GLIS3", "value": "−0.13"}, {"measurement": "RNA-seq results: GLIS3 expression", "setting": "gene GLIS3", "value": "−0.41"}, {"measurement": "RNA-seq results, GLS2 expression", "setting": "gene GLS2", "value": "−0.24"}, {"measurement": "RNA-seq results: GLS2 expression", "setting": "gene GLS2", "value": "−0.06"}, {"measurement": "RNA-seq results, GLYCTK expression", "setting": "gene GLYCTK", "value": 0.32}, {"measurement": "RNA-seq results: GLYCTK expression", "setting": "gene GLYCTK", "value": 0.43}, {"measurement": "RNA-seq results, GNE expression", "setting": "gene GNE", "value": "−0.21"}, {"measurement": "RNA-seq results: GNE expression", "setting": "gene GNE", "value": "−0.11"}, {"measurement": "RNA-seq results, GNPTAB expression", "setting": "gene GNPTAB", "value": "−0.49"}, {"measurement": "RNA-seq results: GNPTAB expression", "setting": "gene GNPTAB", "value": "−0.13"}, {"measurement": "RNA-seq results, GOSH expression", "setting": "gene GOSH", "value": "−0.17"}, {"measurement": "RNA-seq results: GOSH expression", "setting": "gene GOSH", "value": 0.44}, {"measurement": "RNA-seq results, GPC3 expression", "setting": "gene GPC3", "value": "−0.45"}, {"measurement": "RNA-seq results: GPC3 expression", "setting": "gene GPC3", "value": 0.06}]}
